Test results taken from patent US5162373A, “Methods and improved formulations for the determination and treatment of malignant disease in patients” (priority 1989, dated 1992).

Assays:
[1] = test system: intestinal epithelium / gut mucosa; settings: cited from earlier work
[2] = test system: intestinal epithelium / gut mucosa; assay: Trophic/protective effect on intestinal epithelium, other studies; format: in vivo; settings: doses as high as 20 g/L
platelets = settings: rat, in vivo
[3] = design: species or system human (patients with advanced colorectal carcinoma); settings: human, in vivo
Source text: FIG. 4. Platelet counts plotted against days of continuous i.v. DFMO infusion in patients with advanced colorectal carcinoma. […] The paired points are connected by a straight line.
There was no incidence of nausea, vomiting or diarrhea.

[4] = Toxicity of continuous i.v. DFMO infusion in rats (FIG. 3); format: in vivo, rat; settings: 12 days; 500-2000 mg/kg/day
Source text: FIG. 3. […] Bars indicate standard deviation.
In the above described rat model, a continuous infusion of DFMO was given through a central venous catheter.

[5] = test system: tumor putrescine; MCA sarcoma

NC(=O)CC[C@H](N)C(=O)O [glutamine, L-glutamine]
gut epithelium, glutamine added to TPN ([1]; 10-20 g/L): restores gut epithelium
transmucosal migration of bacteria into mesenteric lymph nodes ([1]; compared with glutamine deficient formulas): present transmucosal migration of bacteria into mesenteric lymph nodes
protection of gut mucosa ([1]; oral, rats receiving toxic doses of 5FU or methotrexate): protected the gut mucosa
trophic effect on intestinal epithelium [2]: trophic effect on intestinal epithelium, especially the ileum

NCCCCN [putrescine]
colonic DNA and protein content ([1]; about 50 micromole/100 gram body weight): increases in colonic DNA and protein content
DNA and RNA content and protein in ileum ([1]; putrescine about 1 micromole): increased DNA and RNA content and protein
mucosal proliferation ([1]; putrescine: intraluminal infusion): stimulation of mucosal proliferation

NCCCC(N)(C(=O)O)C(F)F (stereo not shown) [DFMO, Difluoromethylornithine]
platelet suppression, in words (platelets): significant decrease in platelet count as compared with the saline treatment
White cell count [3]: not affected by either dose
decreased hearing acuity [3]: two patients who experienced decreased hearing acuity
hematocrit [3]: Significant suppression of the hematocrit
nausea, vomiting or diarrhea [3]: no incidence
platelet suppression [3]: significant at both doses
platelet suppression, 8 g vs 6 g dose [3]: significantly greater platelet suppression at the 8 g dose as compared with the 6 g dose
resolution of toxicities after discontinuing infusion [3]: resolved spontaneously within two weeks
clinical toxicity [4]: no significant clinical toxicity
decrease in tumor putrescine levels ([5]; DFMO infusion): 90%
growth of MCA sarcoma ([5]; rat, in vivo): reduces the growth rate of an MCA sarcoma but does not produce tumor regression
peripheral platelet counts ([5]; rat, in vivo): without suppressing peripheral platelet counts
